Measurements reported in article PMC8788354 (Journal of Enzyme Inhibition and Medicinal Chemistry, 2022).
Where two headings read alike, the source gives them in different places.

Experiments:
[1] = test system: SKOV-3 (ovarian cancer cell line); test: cells; format: cell-based, human; conditions: for IC50: Homo sapiens, SK-OV-3, SRB assay, 72 h exposure, read-out: Anticancer activity IC50 (nM) ± SD, SKOV-3
[2] = test system: SKBR-3 (human breast cancer cell line); test: cells; format: cell-based; conditions: for IC50: SRB assay, 72 h exposure, read-out: Anticancer activity IC50 (nM) ± SD, SKBR-3
in vitro = conditions: human, Toxicity IC50 (nM) ± SD, HDF, healthy cell line HDF, SRB assay, 72 h exposure
[3] = test system: PC-3 (human prostate cancer cell line); test: cells; format: cell-based; conditions: for IC50: Homo sapiens, SRB assay, 72 h exposure, read-out: Anticancer activity IC50 (nM) ± SD, PC-3
[4] = test system: U-87MG cells (glioblastoma cell line); test: cells; format: cell-based, human; conditions: Homo sapiens, U-87 MG; SRB assay, 72 h exposure; read-out: Anticancer activity IC50 (nM) ± SD, U-87
[5] = test system: SKBR-3, SKOV-3, PC-3, U-87 cells; test: SRB cytotoxicity assay, values summarised over cancer cell lines; format: cell-based, human; conditions: Homo sapiens, SKBR-3, SKOV-3, PC-3, U-87; read-out: Anticancer IC50 over the studied cancer cell lines

| Structure (SMILES) | IC50 [1] | IC50 ([2]; Homo sapiens, SK-BR-3, 72 h) | IC50 (in vitro) | IC50 [3] | IC50 [4] | Selectivity index (SI), SKBR-3 ([2]; SI = IC50 HDF/IC50 SKBR-3) | IC50 [2] | IC50 [5] | IC50 at 72 h (in vitro; Human Dermal Fibroblasts (HDF) cells) | Selectivity index (SI), SKOV-3 ([1]; SI = IC50 HDF/IC50 SKOV-3) | Selectivity index (SI), PC-3 ([3]; SI = IC50 HDF/IC50 PC-3) |
| --- | --- | --- | --- | --- | --- | --- | --- | --- | --- | --- | --- |
| COc1cc2c(c(OC)c1OC)-c1ccc(OC/C=C/c3ccccc3)c(=O)cc1[C@@H](NC(C)=O)CC2 [Compound 4c] | 3.05 ± 0.03 nM | 3.46 ± 0.07 nM | 4.94 ± 0.15 nM | 3.19 ± 0.01 nM | 3.82 ± 0.22 nM | – | – | – | – | – | – |
| COc1cc2c(c(OC)c1OC)-c1ccc(OCc3ccc(/C=C/c4cnc5ccccc5c4)cc3)c(=O)cc1[C@@H](NC(C)=O)CC2 [Compound 8c] | 1.41 ± 0.02 nM | ~1 nM | 2.77 ± 0.25 nM | 1.47 ± 0.05 nM | 1.65 ± 0.03 nM | ~2.6 | 1.05 ± 0.06 nM | 1.03 to 1.73 nM | – | – | – |
| Nc1ccn([C@@H]2O[C@H](CO)[C@@H](O)[C@@H]2O)c(=O)n1 [C, cytarabine, reference compound] | 990 ± 110 nM | 870 ± 10 nM | – | 810 ± 10 nM | 850 ± 31 nM | – | – | – | 5940 ± 70 nM | – | – |
| COc1cc2c(c(OC)c1OC)-c1ccc(=O)c(OCc3ccc(/C=C/c4cnc5ccccc5c4)cc3)cc1[C@@H](NC(C)=O)CC2 [Compound 7c] | 1.03 ± 0.09 nM | 1.51 ± 0.02 nM | 2.16 ± 0.6 nM | 1.52 ± 0.01 nM | 1.73 ± 0.09 nM | – | – | 1.03 to 1.73 nM | – | – | – |
| COc1cc2c(c(OC)c1OC)-c1ccc(OCc3ccccc3)c(=O)cc1[C@@H](NC(C)=O)CC2 [Compound 4a] | 1.63 ± 0.03 nM | 2.01 ± 0.02 nM | 4.12 ± 0.06 nM | 2.26 ± 0.01 nM | 2.08 ± 0.01 nM | – | – | – | – | – | – |
| C/C=C/COc1ccc2c(cc1=O)[C@@H](NC(C)=O)CCc1cc(OC)c(OC)c(OC)c1-2 [Compound 4e] | 1.92 ± 0.11 nM | 1.97 ± 0.04 nM | 2.66 ± 0.03 nM | 1.98 ± 0.05 nM | 1.93 ± 0.02 nM | – | – | – | – | – | – |
| CCOC(=O)COc1ccc2c(cc1=O)[C@@H](NC(C)=O)CCc1cc(OC)c(OC)c(OC)c1-2 [Compound 4g] | 1.06 ± 0.22 nM | 1.28 ± 0.17 nM | 2.05 ± 0.02 nM | 1.15 ± 0.03 nM | 1.27 ± 0.01 nM | – | – | – | – | – | – |
| COc1cc2c(c(OC)c1OC)-c1ccc(OCc3ccc(I)cc3)c(=O)cc1[C@@H](NC(C)=O)CC2 [Compound 4b] | 2.83 ± 0.26 nM | 2.77 ± 0.19 nM | 4.12 ± 0.01 nM | 2.41 ± 0.66 nM | 2.85 ± 0.03 nM | – | – | – | – | – | – |
| C#CCOc1cc2c(ccc1=O)-c1c(cc(OC)c(OC)c1OC)CC[C@@H]2NC(C)=O [Compound 3f] | 1.05 ± 0.07 nM | 1.37 ± 0.02 nM | 2.83 ± 0.44 nM | 1.05 ± 0.03 nM | 1.14 ± 0.01 nM | – | – | – | – | ~2.7 | ~2.7 |
| COc1cc2c(c(OC)c1OC)-c1ccc(OCc3ccc(/C=C/c4ccc5ccccc5c4)cc3)c(=O)cc1[C@@H](NC(C)=O)CC2 [Compound 8a] | 6.49 ± 0.25 nM | 6.3 ± 0.09 nM | 8.72 ± 0.48 nM | 6.03 ± 0.26 nM | 6.44 ± 0.07 nM | – | – | – | – | – | – |
| COc1cc2c(c(OC)c1OC)-c1ccc(=O)c(OCc3ccc(/C=C/c4ccc(CNC5=C6C[C@@H](C)C[C@H](OC)[C@H](O)[C@@H](C)/C=C(\C)[C@H](OC(N)=O)[C@@H](OC)/C=C\C=C(/C)C(=O)NC(=CC5=O)C6=O)cc4)cc3)cc1[C@@H](NC(C)=O)CC2 [Compound 7d] | 7.04 ± 0.15 nM | 7.22 ± 0.19 nM | 9.04 ± 0.29 nM | 7.49 ± 0.32 nM | 7.06 ± 0.44 nM | – | – | – | – | – | – |
| COc1cc2c(c(OC)c1OC)-c1ccc(OCc3cn(Cc4ccc(C#N)cc4)nn3)c(=O)cc1[C@@H](NC(C)=O)CC2 [Compound 6b] | 3.97 ± 0.12 nM | 3.06 ± 0.03 nM | 5.83 ± 0.31 nM | 3.15 ± 0.04 nM | 3.74 ± 0.06 nM | – | – | – | – | – | – |
| COc1cc2c(c(OC)c1OC)-c1ccc(=O)c(OCc3cn(C4CC(n5cc(C)c(=O)[nH]c5=O)OC4CO)nn3)cc1C(NC(C)=O)CC2 (stereo not drawn) [Compound 5e] | 3.74 ± 0.03 nM | 3.71 ± 0.05 nM | 6.22 ± 0.32 nM | 3.51 ± 0.09 nM | 3.05 ± 0.01 nM | – | – | – | – | – | – |
| COc1cc2c(c(OC)c1OC)-c1ccc(=O)c(OCc3cn(Cc4ccccc4)nn3)cc1[C@@H](NC(C)=O)CC2 [Compound 5a] | 3.28 ± 0.06 nM | 3.07 ± 0.11 nM | 5.28 ± 0.22 nM | 3.21 ± 0.15 nM | 3.74 ± 0.19 nM | – | – | – | – | – | – |
| COc1cc2c(c(OC)c1OC)-c1ccc(OCc3cn(CCCNC4=C5C[C@@H](C)C[C@H](OC)[C@H](O)[C@@H](C)/C=C(\C)[C@H](OC(N)=O)[C@@H](OC)/C=C\C=C(/C)C(=O)NC(=CC4=O)C5=O)nn3)c(=O)cc1[C@@H](NC(C)=O)CC2 [Compound 6f] | 15.3 ± 0.31 nM | 17.4 ± 0.64 nM | 18 ± 0.24 nM | 17.84 ± 0.16 nM | 17.3 ± 0.35 nM | – | – | – | – | – | – |
